≈ marks a conversion by molar mass, not a printed value.
Assays:
Assay type in all cases: functional
Streptococcus [1] = test: Antimicrobial activity against Beta-hemolytic Streptococcus assessed as percent susceptible isolate by broth microdilution method
Streptococcus [2] = test: Antimicrobial activity against viridans group Streptococcus by broth microdilution method
Streptococcus [3] = test: Antimicrobial activity against Beta-hemolytic Streptococcus by broth microdilution method
Streptococcus [4] = test: Antimicrobial activity against viridans group Streptococcus assessed as percent susceptible isolate by broth microdilution method
Streptococcus [5] = test: Antimicrobial activity against viridans group Streptococcus assessed as percent resistant isolates by broth microdilution method
Staphylococcus [6] = test: Antimicrobial activity against Oxacillin-susceptible coagulase-negative Staphylococcus by broth microdilution method
Staphylococcus aureus [7] = test: Antimicrobial activity against Oxacillin-susceptible Staphylococcus aureus assessed as percent resistant isolates by broth microdilution method
Staphylococcus [8] = test: Antimicrobial activity against Oxacillin-resistant coagulase-negative Staphylococcus assessed as percent susceptible isolate by broth microdilution method
Staphylococcus aureus [9] = test: Antimicrobial activity against Oxacillin-susceptible Staphylococcus aureus assessed as percent susceptible isolate by broth microdilution method
Staphylococcus [10] = test: Antimicrobial activity against Oxacillin-resistant coagulase-negative Staphylococcus assessed as percent resistant isolate by broth microdilution method
Staphylococcus aureus [11] = test: Antimicrobial activity against Oxacillin-resistant Staphylococcus aureus assessed as percent resistant isolate by broth microdilution method
Staphylococcus aureus [12] = test: Antimicrobial activity against Oxacillin-susceptible Staphylococcus aureus by broth microdilution method
Staphylococcus [13] = test: Antimicrobial activity against Oxacillin-susceptible coagulase-negative Staphylococcus assessed as percent resistant isolate by broth microdilution method
Staphylococcus aureus [14] = test: Antimicrobial activity against Oxacillin-resistant Staphylococcus aureus by broth microdilution method
Staphylococcus [15] = test: Antimicrobial activity against Oxacillin-susceptible coagulase-negative Staphylococcus assessed as percent susceptible isolate by broth microdilution method
Staphylococcus aureus [16] = test: Antimicrobial activity against Oxacillin-resistant Staphylococcus aureus assessed as percent susceptible isolate by broth microdilution method
Staphylococcus [17] = test: Antimicrobial activity against Oxacillin-resistant coagulase-negative Staphylococcus by broth microdilution method
Enterococcus faecium [18] = test: Antimicrobial activity against Vancomycin-nonsusceptible Enterococcus faecium assessed as percent susceptible isolate by broth microdilution method
Enterococcus faecalis [19] = test: Antimicrobial activity against Vancomycin-susceptible Enterococcus faecalis assessed as percent susceptible isolate by broth microdilution method
Enterococcus faecalis [20] = test: Antimicrobial activity against Vancomycin-nonsusceptible Enterococcus faecalis assessed as percent resistant isolates by broth microdilution method
Enterococcus faecium [21] = test: Antimicrobial activity against Vancomycin-susceptible Enterococcus faecium assessed as percent susceptible isolate by broth microdilution method
Enterococcus faecalis [22] = test: Antimicrobial activity against Vancomycin-susceptible Enterococcus faecalis assessed as percent resistant isolates by broth microdilution method
Enterococcus faecium [23] = test: Antimicrobial activity against Vancomycin-susceptible Enterococcus faecium assessed as percent resistant isolates by broth microdilution method
Enterococcus faecium [24] = test: Antimicrobial activity against Vancomycin-nonsusceptible Enterococcus faecium assessed as percent resistant isolates by broth microdilution method
Enterococcus faecalis [25] = test: Antimicrobial activity against Vancomycin-nonsusceptible Enterococcus faecalis assessed as percent susceptible isolate by broth microdilution method
Enterococcus faecalis [26] = test: Antimicrobial activity against Vancomycin-susceptible Enterococcus faecalis by broth microdilution method
Enterococcus faecium [27] = test: Antimicrobial activity against Vancomycin-nonsusceptible Enterococcus faecium by broth microdilution method
Enterococcus faecium [28] = test: Antimicrobial activity against Vancomycin-susceptible Enterococcus faecium by broth microdilution method
Enterococcus faecalis [29] = test: Antimicrobial activity against Vancomycin-nonsusceptible Enterococcus faecalis by broth microdilution method

Q: How did the Activity (Streptococcus [1]) turn out when `CO/N=C(\C(=O)N[C@@H]1C(=O)N2C(C(=O)O)=C(CSc3nc(=O)c(O)nn3C)CS[C@H]12)c1csc(N)n1` [CEFTRIAXONE] was run?
A: 99.9%

Q: What about the MIC (Streptococcus [2]) of the same molecule?
A: 0.25 µg/mL (≈ 0.451 µM)

Q: What about the MIC50 (Streptococcus [2]) of the same molecule?
A: 0.25 µg/mL (≈ 0.451 µM)

Q: What about the MIC90 (Streptococcus [2]) of the same molecule?
A: 1 µg/mL (≈ 1.8 µM)

Q: What about the MIC (Streptococcus [3]) of the same molecule?
A: 0.25 µg/mL (≈ 0.451 µM)

Q: What about the MIC50 (Streptococcus [3]) of the same molecule?
A: 0.25 µg/mL (≈ 0.451 µM)

Q: And the MIC90 (Streptococcus [3])?
A: 0.25 µg/mL (≈ 0.451 µM)

Q: And the Activity (Streptococcus [4])?
A: 92.5%

Q: What about the Activity (Streptococcus [5]) of the same molecule?
A: 4.3%

Q: Which results are given for `CN(C)[C@@H]1C(O)=C(C(N)=O)C(=O)[C@@]2(O)C(O)=C3C(=O)c4c(O)cccc4[C@@](C)(O)[C@H]3C[C@@H]12` [TETRACYCLINE]?
A: MIC (Staphylococcus [6]): ≤ 4 µg/mL; MIC50 (Staphylococcus [6]): ≤ 4 µg/mL; MIC90 (Staphylococcus [6]): > 8 µg/mL; Activity (Staphylococcus aureus [7]): 5.8%; Activity (Staphylococcus [8]): 83.4%; Activity (Staphylococcus aureus [9]): 93.7%; Activity (Staphylococcus [10]): 15.8%; Activity (Staphylococcus aureus [11]): 18.4%; MIC (Staphylococcus aureus [12]): ≤ 4 µg/mL; MIC50 (Staphylococcus aureus [12]): ≤ 4 µg/mL; MIC90 (Staphylococcus aureus [12]): ≤ 4 µg/mL; Activity (Staphylococcus [13]): 12.6%; MIC90 (Staphylococcus aureus [14]): > 8 µg/mL; Activity (Staphylococcus [15]): 86.7%; Activity (Staphylococcus aureus [16]): 81.1%

Q: Which MIC (Staphylococcus [6]) does the source give for `CC[C@H]1OC(=O)[C@H](C)[C@@H](O[C@H]2C[C@@](C)(OC)[C@@H](O)[C@H](C)O2)[C@H](C)[C@@H](O[C@@H]2O[C@H](C)C[C@H](N(C)C)[C@H]2O)[C@](C)(O)C[C@@H](C)C(=O)[C@H](C)[C@@H](O)[C@]1(C)O` [ERYTHROMYCIN] here?
A: ≤ 0.25 µg/mL

Q: What about the MIC50 (Staphylococcus [6]) of the same molecule?
A: ≤ 0.25 µg/mL

Q: What about the MIC90 (Staphylococcus [6]) of the same molecule?
A: > 2 µg/mL

Q: What about the MIC50 (Staphylococcus [17]) of the same molecule?
A: > 2 µg/mL

Q: And the Activity (Staphylococcus aureus [7])?
A: 20.7%

Q: And the Activity (Staphylococcus [8])?
A: 24.1%

Q: What about the Activity (Staphylococcus aureus [9]) of the same molecule?
A: 78.7%

Q: What about the Activity (Streptococcus [1]) of the same molecule?
A: 79.6%

Q: What about the MIC (Streptococcus [2]) of the same molecule?
A: 0.25 µg/mL (≈ 0.341 µM)

Q: And the MIC50 (Streptococcus [2])?
A: 0.25 µg/mL (≈ 0.341 µM)

Q: What about the MIC90 (Streptococcus [2]) of the same molecule?
A: 2 µg/mL (≈ 2.73 µM)

Q: And the Activity (Staphylococcus [10])?
A: 75.4%

Q: And the Activity (Staphylococcus aureus [11])?
A: 88.8%

Q: What about the MIC (Staphylococcus aureus [12]) of the same molecule?
A: ≤ 0.25 µg/mL

Q: And the MIC50 (Staphylococcus aureus [12])?
A: ≤ 0.25 µg/mL

Q: And the MIC90 (Staphylococcus aureus [12])?
A: > 2 µg/mL

Q: And the MIC (Streptococcus [3])?
A: 0.25 µg/mL (≈ 0.341 µM)

Q: What about the MIC50 (Streptococcus [3]) of the same molecule?
A: 0.25 µg/mL (≈ 0.341 µM)

Q: And the MIC90 (Streptococcus [3])?
A: 2 µg/mL (≈ 2.73 µM)

Q: And the Activity (Streptococcus [4])?
A: 56%

Q: And the Activity (Staphylococcus [13])?
A: 33.6%

Q: And the Activity (Streptococcus [5])?
A: 41.7%

Q: And the MIC50 (Staphylococcus aureus [14])?
A: > 2 µg/mL

Q: And the Activity (Staphylococcus [15])?
A: 66%

Q: And the Activity (Staphylococcus aureus [16])?
A: 10.9%

Q: For GENTAMICIN, which Activity (Enterococcus faecium [18]) is on record?
A: 64.3%

Q: What about the MIC50 (Staphylococcus [6]) of the same molecule?
A: < 2 µg/mL

Q: And the MIC90 (Staphylococcus [6])?
A: < 2 µg/mL

Q: What about the Activity (Enterococcus faecalis [19]) of the same molecule?
A: 68.5%

Q: What about the MIC50 (Staphylococcus [17]) of the same molecule?
A: 4 µg/mL

Q: What about the MIC90 (Staphylococcus [17]) of the same molecule?
A: > 8 µg/mL

Q: What about the Activity (Staphylococcus aureus [7]) of the same molecule?
A: 2.6%

Q: What about the Activity (Staphylococcus [8]) of the same molecule?
A: 50.7%

Q: And the Activity (Enterococcus faecalis [20])?
A: 71.6%

Q: And the Activity (Staphylococcus aureus [9])?
A: 97.1%

Q: What about the Activity (Enterococcus faecium [21]) of the same molecule?
A: 61.8%

Q: What about the Activity (Staphylococcus [10]) of the same molecule?
A: 35.3%

Q: And the Activity (Enterococcus faecalis [22])?
A: 31.5%

Q: What about the Activity (Staphylococcus aureus [11]) of the same molecule?
A: 24.8%

Q: And the MIC50 (Staphylococcus aureus [12])?
A: < 2 µg/mL

Q: And the MIC90 (Staphylococcus aureus [12])?
A: < 2 µg/mL

Q: And the Activity (Enterococcus faecium [23])?
A: 38.2%

Q: What about the Activity (Enterococcus faecium [24]) of the same molecule?
A: 35.7%

Q: And the Activity (Enterococcus faecalis [25])?
A: 28.4%

Q: And the MIC50 (Enterococcus faecalis [26])?
A: < 500 µg/mL

Q: And the MIC90 (Enterococcus faecalis [26])?
A: > 1000 µg/mL

Q: What about the Activity (Staphylococcus [13]) of the same molecule?
A: 3.1%

Q: And the MIC50 (Staphylococcus aureus [14])?
A: < 2 µg/mL

Q: And the MIC90 (Staphylococcus aureus [14])?
A: > 8 µg/mL

Q: What about the Activity (Staphylococcus [15]) of the same molecule?
A: 95%

Q: And the Activity (Staphylococcus aureus [16])?
A: 74.1%

Q: For `CN[C@H]1C(=O)N[C@@H]2Cc3ccc(cc3)Oc3cc4cc(c3O[C@@H]3O[C@H](C(=O)O)[C@@H](O)[C@H](O)[C@H]3NC(=O)CCCCCCCCC(C)C)Oc3ccc(cc3Cl)[C@@H](O)[C@@H]3NC(=O)[C@H](NC(=O)[C@@H]4NC(=O)[C@@H](NC2=O)c2cc(cc(O)c2Cl)Oc2cc1ccc2O)c1ccc(O)c(c1)-c1c(O[C@H]2O[C@H](CO)[C@@H](O)[C@H](O)[C@@H]2O)cc(O)cc1[C@@H](C(=O)NCCCN(C)C)NC3=O` [DALBAVANCIN], which Activity (Enterococcus faecium [18]) is on record?
A: 11.4%

Q: What about the MIC (Staphylococcus [6]) of the same molecule?
A: ≤ 0.03 µg/mL

Q: And the MIC50 (Staphylococcus [6])?
A: ≤ 0.03 µg/mL

Q: What about the MIC90 (Staphylococcus [6]) of the same molecule?
A: 0.06 µg/mL (≈ 0.033 µM)

Q: And the Activity (Enterococcus faecalis [19])?
A: >99.9%

Q: And the MIC90 (Staphylococcus [17])?
A: 0.12 µg/mL (≈ 0.0661 µM)

Q: And the Activity (Staphylococcus [8])?
A: 99.2%

Q: What about the Activity (Staphylococcus aureus [9]) of the same molecule?
A: 100%

Q: What about the Activity (Streptococcus [1]) of the same molecule?
A: 100%

Q: What about the MIC50 (Enterococcus faecium [27]) of the same molecule?
A: > 4 µg/mL

Q: And the MIC90 (Enterococcus faecium [27])?
A: > 4 µg/mL

Q: And the Activity (Enterococcus faecium [21])?
A: 99.6%

Q: What about the MIC (Streptococcus [2]) of the same molecule?
A: 0.03 µg/mL (≈ 0.0165 µM)

Q: What about the MIC50 (Streptococcus [2]) of the same molecule?
A: 0.03 µg/mL (≈ 0.0165 µM)

Q: And the MIC90 (Streptococcus [2])?
A: 0.03 µg/mL (≈ 0.0165 µM)

Q: And the MIC50 (Staphylococcus aureus [12])?
A: 0.06 µg/mL (≈ 0.033 µM)

Q: And the MIC90 (Staphylococcus aureus [12])?
A: 0.06 µg/mL (≈ 0.033 µM)

Q: And the MIC (Streptococcus [3])?
A: 0.03 µg/mL (≈ 0.0165 µM)

Q: And the MIC50 (Streptococcus [3])?
A: 0.03 µg/mL (≈ 0.0165 µM)

Q: What about the MIC90 (Streptococcus [3]) of the same molecule?
A: 0.03 µg/mL (≈ 0.0165 µM)

Q: And the Activity (Streptococcus [4])?
A: 100%

Q: And the MIC50 (Enterococcus faecium [28])?
A: 0.06 µg/mL (≈ 0.033 µM)

Q: What about the MIC90 (Enterococcus faecium [28]) of the same molecule?
A: 0.12 µg/mL (≈ 0.0661 µM)

Q: And the Activity (Enterococcus faecalis [25])?
A: 27.8%

Q: What about the MIC50 (Enterococcus faecalis [29]) of the same molecule?
A: > 4 µg/mL

Q: And the MIC90 (Enterococcus faecalis [29])?
A: > 4 µg/mL

Q: What about the MIC (Enterococcus faecalis [26]) of the same molecule?
A: ≤ 0.03 µg/mL

Q: And the MIC50 (Enterococcus faecalis [26])?
A: ≤ 0.03 µg/mL

Q: And the MIC90 (Enterococcus faecalis [26])?
A: 0.06 µg/mL (≈ 0.033 µM)

Q: And the MIC50 (Staphylococcus aureus [14])?
A: 0.06 µg/mL (≈ 0.033 µM)

Q: And the MIC90 (Staphylococcus aureus [14])?
A: 0.06 µg/mL (≈ 0.033 µM)

Q: What about the Activity (Staphylococcus [15]) of the same molecule?
A: 99.8%

From ChEMBL document CHEMBL1629667, “Activities of dalbavancin against a worldwide collection of 81,673 gram-positive bacterial isolates” (2009)
